Source: patent publication US7776826B2, “Method for fostering bone formation and preservation” (Unigene Laboratories, Inc., priority 2004, dated 2010)

What was measured:
Format in all cases: in vivo, rat
Male Sprague-Dawley rats [1] = test: MicroCT analysis of left femoral shafts, Groups A-J; details: left femoral shaft with bmx
From the text: FIG. 6 illustrates the results of Micro Computerized Tomography (MicroCT) analyses of the left (ablated) femoral shafts of the rats which are the subjects of FIGS. 3-4. The abbreviations mean the same as in FIGS. 3-5;
FIG. 6 illustrates the results of a Micro Computerized Tomography (MicroCT) analysis of representative bones taken from the left femoral shaft of control and treated rats. The modality of treatment is set forth in the lower left corner of each of the views, and the abbreviations used therein are the same as those which appear in FIGS. 3-5. The Figure provides a view through a section of each such bone shaft.
(§1) The bones were thereafter subjected to a variety of sample analysis techniques. These included X-ray analysis wherein the femurs were X-rayed in individually sealed plastic bags; PIXIMUS analysis using a Lunar PIXIMUS scanner to measure bone mineral density in the bone marrow cavity of the femurs; MicroCT analysis; and blood analysis for osteocalcin, PTH, CT, NTX and growth factors.

Male Sprague-Dawley rats [2] = test: Serum osteocalcin concentration on day of sacrifice, Groups A-J; details: bmx rats; for serum osteocalcin level, in words: up to 21 days; for Osteocalcin mean: serum
From the text: FIG. 5 provides a series of measurements of the serum osteocalcin concentration (in ng/ml) in the blood of the rats which are the subjects of FIGS. 3-4 on the day of sacrifice. The meaning of the abbreviations is the same as that in FIGS. 3-4;
FIG. 5 provides a graphical representation of the osteocalcin levels determined, at the time of sacrifice, in the serum of rats subjected to the following treatment modalities: bmx+PBS; bmx+ parathyroid hormone (PTH[1-34]-NH2); bmx+salmon calcitonin (CT); and bmx+ parathyroid hormone (PTH[1-34]-NH2)+CT. It is well known by those of ordinary skill in this art that osteocalcin is a biochemical marker related to the number of osteoblasts, i.e, a measure of new bone growth, which may be measured in the blood serum of the animal. […] That is, administering CT reduces the rate of bone turn-over.
Table 4 additionally provides the standard deviations for the values obtained during each of the indicated analyses, which standard deviations are also indicated in FIG. 5.
On the day of sacrifice, each rat was euthanized in a CO2 chamber. The rat's blood was then collected via a cardiac puncture. The femurs were removed and fixed in a 4% formalin solution, after which they were dehydrated in a graded series of ethanol solutions.
as §1

Male Sprague-Dawley rats [3] = test: pQCT analysis of left (ablated) and right (non-ablated) femoral shafts, Groups A-J; details: for Left femoral shaft Total density mean / Left femoral shaft Trabecular density mean: ablated femur; for new trabecular bone formation in left femoral shaft, in words: bmx, pQCT; for Right femoral shaft Total density mean / Right femoral shaft Trabecular density mean: non-ablated femur (bmx on contralateral left femur)
From the text: FIG. 4 (a-d) are graphical representations of the results of Peripheral Quantitative Computerized Tomography (PQCT) analyses of, respectively, the left (ablated) and right (non-ablated) femoral shafts of the rats which are the subject of FIG. 3 above. FIGS. 4(a) and 4(b) illustrate the trabecular bone density observed in respectively, the left and right femoral shafts of these rats, whereas, FIGS. 4(c) and 4(d) illustrate the total bone density of the respective shafts. The meanings of the abbreviations used in FIGS. 4a-4d are identical to those described above with regard to FIG. 3 (a-e);
All of the data presented above are based on analyses carried out solely of the distal epiphysis portion of the rat femurs. Subsequently, however, to avoid the above-described drawbacks associated with reading the bone density at the level of the epiphysis, the inventors undertook to further analyze the remaining portions of the animals' femur bones and particularly, areas along the length of the cortical shaft. […] In the discussion which follows, directed to the results of these additional analyses, the reader is reminded that the bone marrow ablation (bmx) technique was practiced, in all cases, only on the left femur of the test animals. That is to say, there was no ablation of the marrow portion in the right femur. Thus, in the right femur views discussed below, wherein the illustration or graph relating to the right femur is labeled with the abbreviation “bmx”, etc. to describe the modality of treatment which the rat was subjected to, one should understand such labeling to mean that the view is of a right femur, or is of a graph which presents a value obtained pursuant to the analysis of such right femur, wherein the animal's corresponding left femur underwent a bone marrow ablation treatment in the manner described herein.
FIG. 4 (a-d) graphically illustrate the formation of both trabecular bone and, to some extent, total bone, within the left femoral shaft in rats from the Groups described in Tables 1 and/or 2 above, wherein the left femur was subjected to a bmx (bone marrow ablation) treatment coupled with a concurrent and/or subsequent administration of one or more bone anabolic agents, including parathyroid hormone (PTH[1-34]-NH2) and one or more anti-resorptive agents such as salmon calcitonin. […] The effects of these last two combinations protects the significant initial bone formation induced by bmx, but not to the same extent as parathyroid hormone (PTH[1-34]-NH2) alone.
FIGS. 4(b) and 4(d) are provided to illustrate the results obtained with the same animals' corresponding right femoral shafts, i.e, in which bone marrow ablation (bmx) was not performed. Little or no new bone formation was observed, i.e, the density remained substantially constant, since the only treatment received by the right femurs was due to the systemic administration of the bone anabolic agent. The agent(s) was administered for too short a period to have, by itself, any real positive effect on the bone density. In fact, the total bone density curve for the right femoral shaft presents a substantially straight line, which is attributable to the fact that the total density measurement includes a measurement of cortical bone. Furthermore, since the anabolic agent was not administered for a period sufficient to increase cortical bone density, the total density remained unchanged.
The table additionally includes the standard deviations (“sd”) for the values obtained for each analysis, which standard deviations are also indicated in FIG. 4 (a-d).
The results set forth in FIGS. 1, 2, 4, 5, 11 and 12 and the corresponding Tables, Nos. 1, 2, 3, 4, 5 and 6 discussed above were obtained with the use of a method for mechanically inducing increased osteoblast activity as illustrated in FIGS. 14A-14D. […]

Substance | serum osteocalcin level, in words (Male Sprague-Dawley rats [2]) | Osteocalcin mean (Male Sprague-Dawley rats [2]; Day 0) | Osteocalcin mean (Male Sprague-Dawley rats [2]; Day 7) | Osteocalcin mean (Male Sprague-Dawley rats [2]; Day 14) | Osteocalcin mean (Male Sprague-Dawley rats [2]; Day 21) | Left femoral shaft Total density mean (Male Sprague-Dawley rats [3]; Day 0) | Left femoral shaft Trabecular density mean (Male Sprague-Dawley rats [3]; Day 0) | Left femoral shaft Total density mean (Male Sprague-Dawley rats [3]; Day 7) | Left femoral shaft Trabecular density mean (Male Sprague-Dawley rats [3]; Day 7) | Left femoral shaft Total density mean (Male Sprague-Dawley rats [3]; Day 14) | Left femoral shaft Trabecular density mean (Male Sprague-Dawley rats [3]; Day 14) | Left femoral shaft Total density mean (Male Sprague-Dawley rats [3]; Day 21) | Left femoral shaft Trabecular density mean (Male Sprague-Dawley rats [3]; Day 21) | new trabecular bone formation in left femoral shaft, in words (Male Sprague-Dawley rats [3]) | Right femoral shaft Total density mean (Male Sprague-Dawley rats [3]; Day 0) | Right femoral shaft Trabecular density mean (Male Sprague-Dawley rats [3]; Day 0) | Right femoral shaft Total density mean (Male Sprague-Dawley rats [3]; Day 7) | Right femoral shaft Trabecular density mean (Male Sprague-Dawley rats [3]; Day 7) | Right femoral shaft Total density mean (Male Sprague-Dawley rats [3]; Day 14) | Right femoral shaft Trabecular density mean (Male Sprague-Dawley rats [3]; Day 14) | further results
PTH[1-34]-NH2 | highest and most consistent level of osteocalcin | 108.2 ng/mL | 125.5 ng/mL | 125.4 ng/mL | 117.8 ng/mL | 726.1 mg/mL | 21.4 mg/mL | 867.5 mg/mL | 243.8 mg/mL | 968.7 mg/mL | 465.4 mg/mL | 1046.7 mg/mL | 511.2 mg/mL | greatest formation of new trabecular bone | 787.2 mg/mL | 12.9 mg/mL | 848.2 mg/mL | 1.5 mg/mL | 871 mg/mL | 13.7 mg/mL | new bone growth in MicroCT, in words (Male Sprague-Dawley rats [1]): most extensive new bone growth; Right femoral shaft Total density mean (Male Sprague-Dawley rats [3]; Day 21): 864.8 mg/mL; Right femoral shaft Trabecular density mean (Male Sprague-Dawley rats [3]; Day 21): 10.7 mg/mL
salmon calcitonin [CT, reference compound] | relatively steady state value of osteocalcin | 108.2 ng/mL | 100.5 ng/mL | 101 ng/mL | 69.5 ng/mL | 726.1 mg/mL | 21.4 mg/mL | 833.6 mg/mL | 232.2 mg/mL | 876.2 mg/mL | 257 mg/mL | 833.2 mg/mL | 163.5 mg/mL | Beneficial results | 787.2 mg/mL | 12.9 mg/mL | 797.4 mg/mL | 1.2 mg/mL | 821.9 mg/mL | 10.9 mg/mL | Right femoral shaft Total density mean (Male Sprague-Dawley rats [3]; Day 21): 821.3 mg/mL; Right femoral shaft Trabecular density mean (Male Sprague-Dawley rats [3]; Day 21): 10.8 mg/mL
